Tests used:
Experiment in all cases: biochemical
Format in all cases: biochemical
[1] = target: 363 human kinases (including Aurora A/B/C) (Homo sapiens, UniProt Q96SB4); settings: SRPK1; for remaining activity at 0.1 µM: 100 nM; for remaining activity at 0.1 µM / remaining activity at 0.5 µM: read-out: % Enzyme Activity (relative to DMSO controls)
Description: (§1) However, the Aurora A/B selectivity ratios derived from our in vitro and in vivo data can be compared to prioritize inhibitors.

[2] = target: 363 human kinases (including Aurora A/B/C) (Homo sapiens, UniProt Q6P5Z2); settings: PKN3/PRK3; for remaining activity at 0.1 µM: 100 nM; for remaining activity at 0.1 µM / remaining activity at 0.5 µM: read-out: % Enzyme Activity (relative to DMSO controls)
Chain of 363 human kinases (including Aurora A/B/C) (Homo sapiens, UniProt Q6P5Z2) (Q6P5Z2 whole entry): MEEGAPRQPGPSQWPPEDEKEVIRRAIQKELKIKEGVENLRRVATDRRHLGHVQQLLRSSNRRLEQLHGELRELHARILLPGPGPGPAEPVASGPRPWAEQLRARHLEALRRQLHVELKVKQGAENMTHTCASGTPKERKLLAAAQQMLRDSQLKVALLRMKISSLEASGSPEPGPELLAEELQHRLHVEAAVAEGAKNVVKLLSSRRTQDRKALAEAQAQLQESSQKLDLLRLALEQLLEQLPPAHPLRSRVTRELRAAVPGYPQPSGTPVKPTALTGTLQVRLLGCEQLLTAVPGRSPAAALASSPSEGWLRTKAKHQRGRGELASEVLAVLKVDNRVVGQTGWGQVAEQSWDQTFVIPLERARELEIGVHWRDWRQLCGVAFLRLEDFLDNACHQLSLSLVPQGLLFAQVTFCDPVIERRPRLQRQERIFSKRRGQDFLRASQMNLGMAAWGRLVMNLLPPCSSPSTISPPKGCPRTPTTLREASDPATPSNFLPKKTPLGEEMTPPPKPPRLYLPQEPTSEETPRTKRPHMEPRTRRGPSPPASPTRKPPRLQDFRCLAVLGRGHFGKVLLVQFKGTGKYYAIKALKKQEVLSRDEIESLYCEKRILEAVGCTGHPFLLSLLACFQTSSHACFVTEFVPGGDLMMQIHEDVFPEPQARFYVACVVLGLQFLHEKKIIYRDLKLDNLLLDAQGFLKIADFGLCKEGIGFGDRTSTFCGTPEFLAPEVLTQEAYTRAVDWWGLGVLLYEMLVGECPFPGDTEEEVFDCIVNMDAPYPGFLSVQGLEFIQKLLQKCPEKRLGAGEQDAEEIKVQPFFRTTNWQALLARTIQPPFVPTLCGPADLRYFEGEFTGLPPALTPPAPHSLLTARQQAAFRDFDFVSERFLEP
Description: as §1

[3] = target: 363 human kinases (including Aurora A/B/C) (Homo sapiens, UniProt P49761); settings: CLK3, [ATP] 10 µM; for remaining activity at 0.1 µM: 100 nM; for remaining activity at 0.1 µM / remaining activity at 0.5 µM: read-out: % Enzyme Activity (relative to DMSO controls)
Chain of 363 human kinases (including Aurora A/B/C) (Homo sapiens, UniProt P49761) (P49761 whole entry): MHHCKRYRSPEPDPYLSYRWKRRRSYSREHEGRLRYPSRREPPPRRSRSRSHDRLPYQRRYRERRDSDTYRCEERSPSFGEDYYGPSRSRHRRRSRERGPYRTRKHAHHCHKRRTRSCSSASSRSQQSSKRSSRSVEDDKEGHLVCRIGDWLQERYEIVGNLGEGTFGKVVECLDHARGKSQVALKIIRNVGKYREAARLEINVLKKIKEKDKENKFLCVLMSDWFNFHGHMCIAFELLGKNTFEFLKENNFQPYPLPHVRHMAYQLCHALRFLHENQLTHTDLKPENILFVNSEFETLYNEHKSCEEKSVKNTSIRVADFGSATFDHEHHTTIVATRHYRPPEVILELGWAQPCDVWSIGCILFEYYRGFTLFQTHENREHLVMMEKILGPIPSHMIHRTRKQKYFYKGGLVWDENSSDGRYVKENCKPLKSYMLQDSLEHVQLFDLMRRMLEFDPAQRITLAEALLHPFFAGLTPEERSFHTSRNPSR
Description: as §1

[4] = target: 363 human kinases (including Aurora A/B/C) (Homo sapiens, UniProt Q86UX6); settings: STK32C/YANK3; for remaining activity at 0.1 µM: 100 nM; for remaining activity at 0.1 µM / remaining activity at 0.5 µM: read-out: % Enzyme Activity (relative to DMSO controls)
Chain of 363 human kinases (including Aurora A/B/C) (Homo sapiens, UniProt Q86UX6) (Q86UX6 whole entry): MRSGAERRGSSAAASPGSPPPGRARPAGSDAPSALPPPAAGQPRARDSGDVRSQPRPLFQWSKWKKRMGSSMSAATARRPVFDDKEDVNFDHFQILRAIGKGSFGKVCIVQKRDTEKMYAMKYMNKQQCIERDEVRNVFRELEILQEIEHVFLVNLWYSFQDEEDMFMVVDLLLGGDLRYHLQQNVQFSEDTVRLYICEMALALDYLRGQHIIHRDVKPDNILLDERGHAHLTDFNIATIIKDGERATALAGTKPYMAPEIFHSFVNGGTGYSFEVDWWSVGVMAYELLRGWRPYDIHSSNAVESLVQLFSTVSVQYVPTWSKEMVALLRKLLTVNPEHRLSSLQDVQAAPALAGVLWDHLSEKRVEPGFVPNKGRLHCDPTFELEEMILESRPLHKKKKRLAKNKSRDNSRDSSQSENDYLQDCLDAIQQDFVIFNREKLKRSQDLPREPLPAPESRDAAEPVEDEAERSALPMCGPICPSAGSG
Description: as §1

[5] = target: T1, 363 human kinases (including Aurora A/B/C) (Homo sapiens, UniProt Q06418); settings: TYRO3/SKY; for remaining activity at 0.1 µM: 100 nM; for remaining activity at 0.1 µM / remaining activity at 0.5 µM: read-out: % Enzyme Activity (relative to DMSO controls)
T1 sequence (Q06418 41-890): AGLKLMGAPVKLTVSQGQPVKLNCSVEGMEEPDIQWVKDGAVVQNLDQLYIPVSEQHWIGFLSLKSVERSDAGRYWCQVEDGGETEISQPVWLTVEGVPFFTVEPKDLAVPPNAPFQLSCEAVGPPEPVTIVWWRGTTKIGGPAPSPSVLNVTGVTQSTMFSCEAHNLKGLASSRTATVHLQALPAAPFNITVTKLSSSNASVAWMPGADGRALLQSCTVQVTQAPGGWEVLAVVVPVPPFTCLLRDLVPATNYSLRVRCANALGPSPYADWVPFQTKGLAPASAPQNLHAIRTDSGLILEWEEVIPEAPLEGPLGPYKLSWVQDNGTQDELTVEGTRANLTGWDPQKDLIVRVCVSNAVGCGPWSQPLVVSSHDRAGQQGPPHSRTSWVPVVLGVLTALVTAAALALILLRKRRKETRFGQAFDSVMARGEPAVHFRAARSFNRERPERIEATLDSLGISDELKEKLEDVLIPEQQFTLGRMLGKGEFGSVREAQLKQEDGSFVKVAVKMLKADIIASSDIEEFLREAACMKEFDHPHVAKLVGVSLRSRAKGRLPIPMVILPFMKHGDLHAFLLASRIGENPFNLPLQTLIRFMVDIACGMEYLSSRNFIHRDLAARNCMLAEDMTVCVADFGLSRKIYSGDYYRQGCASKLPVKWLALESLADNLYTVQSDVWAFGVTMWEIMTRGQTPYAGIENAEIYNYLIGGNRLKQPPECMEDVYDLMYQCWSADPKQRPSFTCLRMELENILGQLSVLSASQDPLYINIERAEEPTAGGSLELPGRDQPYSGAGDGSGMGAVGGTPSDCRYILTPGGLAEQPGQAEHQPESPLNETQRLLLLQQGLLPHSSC
Description: as §1

[6] = target: T2, 363 human kinases (including Aurora A/B/C) (Homo sapiens, UniProt Q9H2K8); settings: TAOK3/JIK; for remaining activity at 0.1 µM: 100 nM; for remaining activity at 0.1 µM / remaining activity at 0.5 µM: read-out: % Enzyme Activity (relative to DMSO controls)
T2 sequence (Q9H2K8 1-898): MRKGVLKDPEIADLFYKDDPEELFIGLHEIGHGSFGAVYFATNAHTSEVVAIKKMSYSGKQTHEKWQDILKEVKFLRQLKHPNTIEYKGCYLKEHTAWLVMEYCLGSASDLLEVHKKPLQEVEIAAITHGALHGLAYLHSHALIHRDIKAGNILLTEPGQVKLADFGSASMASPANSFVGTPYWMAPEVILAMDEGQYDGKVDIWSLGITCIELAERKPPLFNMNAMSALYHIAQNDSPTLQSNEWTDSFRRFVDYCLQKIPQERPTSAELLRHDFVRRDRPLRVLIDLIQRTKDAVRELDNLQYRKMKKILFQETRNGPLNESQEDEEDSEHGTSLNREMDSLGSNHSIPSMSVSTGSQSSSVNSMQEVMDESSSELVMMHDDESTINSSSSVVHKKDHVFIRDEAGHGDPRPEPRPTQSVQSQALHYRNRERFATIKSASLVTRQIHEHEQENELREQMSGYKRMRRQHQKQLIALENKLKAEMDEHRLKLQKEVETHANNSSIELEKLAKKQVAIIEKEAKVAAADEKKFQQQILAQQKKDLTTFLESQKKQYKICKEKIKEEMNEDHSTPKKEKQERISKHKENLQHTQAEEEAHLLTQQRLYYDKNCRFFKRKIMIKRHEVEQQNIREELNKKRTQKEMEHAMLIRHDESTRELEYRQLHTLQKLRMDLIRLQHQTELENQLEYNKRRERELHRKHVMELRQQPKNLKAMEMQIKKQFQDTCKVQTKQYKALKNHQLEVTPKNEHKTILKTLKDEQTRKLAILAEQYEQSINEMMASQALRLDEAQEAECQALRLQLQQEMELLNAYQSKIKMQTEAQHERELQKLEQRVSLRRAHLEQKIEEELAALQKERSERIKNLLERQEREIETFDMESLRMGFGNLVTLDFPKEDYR
Description: as §1

[7] = target: T3, 363 human kinases (including Aurora A/B/C) (Homo sapiens, UniProt Q8TD08); settings: ERK7/MAPK15, [ATP] 10 µM; for remaining activity at 0.1 µM: 100 nM; for remaining activity at 0.1 µM / remaining activity at 0.5 µM: read-out: % Enzyme Activity (relative to DMSO controls)
T3 sequence (Q8TD08 1-544): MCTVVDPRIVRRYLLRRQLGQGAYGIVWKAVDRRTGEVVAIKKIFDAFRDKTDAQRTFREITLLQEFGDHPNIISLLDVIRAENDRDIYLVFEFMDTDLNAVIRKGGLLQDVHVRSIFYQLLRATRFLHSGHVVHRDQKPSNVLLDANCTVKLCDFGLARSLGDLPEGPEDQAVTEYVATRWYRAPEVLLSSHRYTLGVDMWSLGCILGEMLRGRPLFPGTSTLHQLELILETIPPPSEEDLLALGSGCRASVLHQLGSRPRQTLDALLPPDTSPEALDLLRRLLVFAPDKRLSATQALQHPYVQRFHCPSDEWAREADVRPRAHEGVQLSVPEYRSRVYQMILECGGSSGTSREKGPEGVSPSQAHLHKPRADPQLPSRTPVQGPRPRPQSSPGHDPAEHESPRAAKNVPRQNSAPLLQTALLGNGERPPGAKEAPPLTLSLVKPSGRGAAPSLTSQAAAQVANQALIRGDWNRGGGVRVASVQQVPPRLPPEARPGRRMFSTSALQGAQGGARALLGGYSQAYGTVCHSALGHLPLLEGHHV
Description: as §1

[8] = target: 363 human kinases (including Aurora A/B/C) (Homo sapiens, UniProt Q9P1W9); settings: PIM2; for remaining activity at 0.1 µM: 100 nM; for remaining activity at 0.1 µM / remaining activity at 0.5 µM: read-out: % Enzyme Activity (relative to DMSO controls)
Chain of 363 human kinases (including Aurora A/B/C) (Homo sapiens, UniProt Q9P1W9) (Q9P1W9 whole entry): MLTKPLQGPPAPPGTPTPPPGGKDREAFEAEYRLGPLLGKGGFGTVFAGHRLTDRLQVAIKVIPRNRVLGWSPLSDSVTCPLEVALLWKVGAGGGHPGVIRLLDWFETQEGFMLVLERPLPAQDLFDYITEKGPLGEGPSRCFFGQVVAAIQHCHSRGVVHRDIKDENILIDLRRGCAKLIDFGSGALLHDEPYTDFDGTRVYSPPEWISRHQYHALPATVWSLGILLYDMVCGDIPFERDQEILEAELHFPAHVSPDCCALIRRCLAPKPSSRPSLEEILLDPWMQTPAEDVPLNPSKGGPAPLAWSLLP
Description: as §1

[9] = target: 363 human kinases (including Aurora A/B/C) (Homo sapiens, UniProt P53350); settings: PLK1; for remaining activity at 0.1 µM: 100 nM; for remaining activity at 0.1 µM / remaining activity at 0.5 µM: read-out: % Enzyme Activity (relative to DMSO controls)
Chain of 363 human kinases (including Aurora A/B/C) (Homo sapiens, UniProt P53350) (P53350 whole entry): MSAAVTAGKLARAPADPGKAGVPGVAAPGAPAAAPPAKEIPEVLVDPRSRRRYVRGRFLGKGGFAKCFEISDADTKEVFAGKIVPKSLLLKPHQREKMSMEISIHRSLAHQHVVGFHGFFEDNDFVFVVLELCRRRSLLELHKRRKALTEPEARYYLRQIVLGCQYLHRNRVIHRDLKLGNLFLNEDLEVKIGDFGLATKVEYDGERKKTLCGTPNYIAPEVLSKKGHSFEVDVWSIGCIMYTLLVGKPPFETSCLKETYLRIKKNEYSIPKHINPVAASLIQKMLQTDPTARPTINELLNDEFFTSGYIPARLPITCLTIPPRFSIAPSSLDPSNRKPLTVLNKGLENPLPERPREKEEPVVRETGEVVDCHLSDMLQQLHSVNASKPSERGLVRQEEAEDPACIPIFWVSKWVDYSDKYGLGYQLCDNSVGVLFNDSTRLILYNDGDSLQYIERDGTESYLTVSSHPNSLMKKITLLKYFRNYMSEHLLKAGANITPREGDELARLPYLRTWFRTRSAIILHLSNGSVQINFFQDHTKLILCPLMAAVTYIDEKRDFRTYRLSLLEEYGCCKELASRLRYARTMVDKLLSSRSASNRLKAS
Description: as §1

Chain of 363 human kinases (including Aurora A/B/C) (Homo sapiens, UniProt Q96SB4) (Q96SB4 whole entry): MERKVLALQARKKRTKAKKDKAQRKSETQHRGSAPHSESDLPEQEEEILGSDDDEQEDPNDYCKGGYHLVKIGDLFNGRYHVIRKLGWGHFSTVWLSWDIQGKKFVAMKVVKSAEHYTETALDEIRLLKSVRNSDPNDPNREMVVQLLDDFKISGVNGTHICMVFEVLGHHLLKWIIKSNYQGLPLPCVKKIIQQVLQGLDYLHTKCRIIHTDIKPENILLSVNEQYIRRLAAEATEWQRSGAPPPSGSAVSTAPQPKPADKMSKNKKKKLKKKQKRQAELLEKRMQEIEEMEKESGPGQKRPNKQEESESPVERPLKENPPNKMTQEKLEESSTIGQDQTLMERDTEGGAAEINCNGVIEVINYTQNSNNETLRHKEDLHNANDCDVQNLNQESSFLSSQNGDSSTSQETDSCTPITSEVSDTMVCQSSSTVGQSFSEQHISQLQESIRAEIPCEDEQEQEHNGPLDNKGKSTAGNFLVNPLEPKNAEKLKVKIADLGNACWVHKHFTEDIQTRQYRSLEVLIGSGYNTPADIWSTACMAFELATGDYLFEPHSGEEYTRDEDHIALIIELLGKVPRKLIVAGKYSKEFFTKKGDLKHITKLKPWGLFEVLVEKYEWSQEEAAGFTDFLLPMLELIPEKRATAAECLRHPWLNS

SMILES	remaining activity at 0.1 µM [1] [%]	remaining activity at 0.1 µM [2] [%]	remaining activity at 0.1 µM [3] [%]	remaining activity at 0.1 µM [4] [%]	remaining activity at 0.1 µM [5] [%]	remaining activity at 0.1 µM [6] [%]	remaining activity at 0.1 µM [7] [%]	remaining activity at 0.1 µM [8] [%]	remaining activity at 0.1 µM [9] [%]	remaining activity at 0.5 µM ([1]; 500 nM) [%]	remaining activity at 0.5 µM ([2]; 500 nM) [%]	remaining activity at 0.5 µM ([3]; 500 nM) [%]	remaining activity at 0.5 µM ([4]; 500 nM) [%]	remaining activity at 0.5 µM ([5]; 500 nM) [%]	remaining activity at 0.5 µM ([6]; 500 nM) [%]	remaining activity at 0.5 µM ([7]; 500 nM) [%]	remaining activity at 0.5 µM ([8]; 500 nM) [%]	remaining activity at 0.5 µM ([9]; 500 nM) [%]	further results
CCn1cc(-c2ccnc3[nH]c(-c4cccc(CN(C)C)c4)cc23)c(-c2ccc(NC(=O)N(C)C)cc2)n1 [GSK1070916]	103	107	83.4	79.9	83.8	174	102	87.2	96.5										
O=C(O)[C@]1(Cc2cccc(Nc3nccs3)n2)CC[C@@H](Oc2cccc(Cl)c2F)CC1 [MK-5108]	101	90.8	97.5	124	75.9	80.2	83.7	104	101	95.5	88.2	71.5	96.6	40.6	110	64.2	88.5	100	
O=C(c1cccc(Cl)c1F)N1CCN(Cc2cccc(Nc3nccs3)n2)CC1 [MK-8745]										101	100	82.7	81.5	29.3	95.2	92.2	93.8	95.1	% Enzyme Activity (relative to DMSO controls) ([1]; 500 nM): 99.92%; % Enzyme Activity (relative to DMSO controls) ([2]; 500 nM): 100.01%; % Enzyme Activity (relative to DMSO controls) ([3]; 500 nM): 82.30%; % Enzyme Activity (relative to DMSO controls) ([4]; 500 nM): 79.77%; % Enzyme Activity (relative to DMSO controls) ([5]; 500 nM): 27.58%; % Enzyme Activity (relative to DMSO controls) ([6]; 500 nM): 93.76%; % Enzyme Activity (relative to DMSO controls) ([7]; 500 nM): 85.14%; % Enzyme Activity (relative to DMSO controls) ([8]; 500 nM): 93.64%; % Enzyme Activity (relative to DMSO controls) ([9]; 500 nM): 94.27%

From publication PMC4685510, “A Cell Biologist’s Field Guide to Aurora Kinase Inhibitors” (Frontiers in Oncology, 2015)
